Assay results: patent US6358885B1, “Substituted phenylheterocyclic herbicides” (Mississippi State University, priority 1992, dated 2002)

Key:
downy brome = test: Test C preemergence/postemergence greenhouse plant response rating 0 to 100; format: in vivo, Bromus tectorum
Summary of the method: (§1)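 Compounds in non-phytotoxic solvent went onto sandy loam before emergence (seeded one day earlier) or onto plants at the one-to-four leaf stage. Duck salad was treated via flood water (~2.5 cm, maintained) over silt loam.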

wild oat = test: Test B preemergence/postemergence greenhouse plant response rating 0 to 10; format: in vivo, Avena fatua; settings: for Plant response rating, Wild oat: 0 to 10 scale
Summary of the method: (§2)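 Planted seeds are treated preemergence with compound dissolved in a non-phytotoxic solvent, while postemergence applications go onto plants of two to eighteen cm. Plants stay in the greenhouse twelve to sixteen days and are then rated visually relative to controls.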

barley = test: Test C preemergence/postemergence greenhouse plant response rating 0 to 100; format: in vivo, Hordeum vulgare; settings: for Plant response rating Barley Igri: 125 g/ha, 0 to 100 scale
Summary of the method: as §1

chickweed [1] = test: Test B preemergence/postemergence greenhouse plant response rating 0 to 10; format: in vivo, Stellaria media; settings: for Plant response rating, Chickweed: 0 to 10 scale
Summary of the method: as §2

lambsquarters = test: Test C preemergence/postemergence greenhouse plant response rating 0 to 100; format: in vivo, Chenopodium album; settings: for Plant response rating Lambsquarters: 125 g/ha, 0 to 100 scale
Summary of the method: as §1

ryegrass = test: as above; format: in vivo, Lolium multiflorum; settings: for Plant response rating Ryegrass: 125 g/ha, 0 to 100 scale
Summary of the method: as §1

duck salad = test: Test C flood test plant response rating 0 to 100; format: in vivo, Heteranthera limosa
Summary of the method: as §1

sugar beet = test: Test C preemergence/postemergence greenhouse plant response rating 0 to 100; format: in vivo, Beta vulgaris; settings: for Plant response rating, Sugar beet: 125 g/ha, 0 to 100 scale
Summary of the method: as §1

chickweed [2] = test: as above; format: in vivo, Stellaria media; settings: for Plant response rating, Chickweed: 125 g/ha, 0 to 100 scale
Summary of the method: as §1

COCOc1cc(-c2nn3c(c2Cl)CCCC3)c(F)cc1Cl [Compound 58]
20: Plant response rating (0 to 100), Duck salad (duck salad; Rate 8 g/ha, under POSTEMERGENCE head (flood test species)) | Plant response rating (0 to 100), Chickweed (chickweed [2]; POSTEMERGENCE, Rate 2 g/ha)
85: Plant response rating (0 to 100), Lambsquarters (lambsquarters; Rate 8 g/ha, POSTEMERGENCE) | Plant response rating Ryegrass (ryegrass; POSTEMERGENCE) | Plant response rating Duck salad (duck salad; flood test species listed under POSTEMERGENCE, 125 g/ha, 0 to 100 scale) | Plant response rating (0 to 100), Sugar beet (sugar beet; Rate 8 g/ha, PREEMERGENCE)
50: Plant response rating (0 to 100), Barley Igri (barley; Rate 31 g/ha, POSTEMERGENCE) | Plant response rating (0 to 100), Lambsquarters (lambsquarters; POSTEMERGENCE, Rate 2 g/ha) | Plant response rating (0 to 100), Ryegrass (ryegrass; Rate 31 g/ha, PREEMERGENCE)
70: Plant response rating (0 to 100), Downy Brome (downy brome; Rate 31 g/ha, POSTEMERGENCE) | Plant response rating, Chickweed (chickweed [2]; PREEMERGENCE) | Plant response rating (0 to 100), Chickweed (chickweed [2]; Rate 8 g/ha, POSTEMERGENCE)
90: Plant response rating (0 to 100), Sugar beet (sugar beet; Rate 31 g/ha, PREEMERGENCE)
10: Plant response rating, Chickweed (chickweed [1]; PREEMERGENCE, Rate 50 g/ha) | Plant response rating (0 to 10 scale), Chickweed (chickweed [1]; PREEMERGENCE, Rate 200 g/ha) | Plant response rating, Chickweed (chickweed [1]; Rate 200 g/ha, POSTEMERGENCE) | Plant response rating (0 to 100), Ryegrass (ryegrass; POSTEMERGENCE, Rate 2 g/ha) | Plant response rating (0 to 100), Sugar beet (sugar beet; PREEMERGENCE, Rate 2 g/ha) | Plant response rating (0 to 100), Chickweed (chickweed [2]; PREEMERGENCE, Rate 2 g/ha) | Plant response rating (0 to 100), Chickweed (chickweed [2]; Rate 31 g/ha, PREEMERGENCE)
30: Plant response rating (0 to 100), Downy Brome (downy brome; Rate 31 g/ha, PREEMERGENCE) | Plant response rating (0 to 100), Barley Igri (barley; POSTEMERGENCE, Rate 2 g/ha) | Plant response rating Barley Igri (barley; PREEMERGENCE) | Plant response rating (0 to 100), Ryegrass (ryegrass; Rate 8 g/ha, POSTEMERGENCE)
7: Plant response rating, Wild oat (wild oat; POSTEMERGENCE, Rate 50 g/ha)
40: Plant response rating (0 to 100), Downy Brome (downy brome; Rate 8 g/ha, POSTEMERGENCE) | Plant response rating (0 to 100), Barley Igri (barley; Rate 8 g/ha, POSTEMERGENCE)
6: Plant response rating, Wild oat (wild oat; PREEMERGENCE, Rate 50 g/ha)
60: Plant response rating Barley Igri (barley; POSTEMERGENCE) | Plant response rating (0 to 100), Ryegrass (ryegrass; Rate 31 g/ha, POSTEMERGENCE)
0: Plant response rating (0 to 100), Downy Brome (downy brome; PREEMERGENCE, Rate 2 g/ha) | Plant response rating (0 to 100), Downy Brome (downy brome; Rate 8 g/ha, PREEMERGENCE) | Plant response rating (0 to 100), Barley Igri (barley; PREEMERGENCE, Rate 2 g/ha) | Plant response rating (0 to 100), Barley Igri (barley; Rate 8 g/ha, PREEMERGENCE) | Plant response rating (0 to 100), Barley Igri (barley; Rate 31 g/ha, PREEMERGENCE) | Plant response rating (0 to 100), Lambsquarters (lambsquarters; PREEMERGENCE, Rate 2 g/ha) | Plant response rating (0 to 100), Ryegrass (ryegrass; PREEMERGENCE, Rate 2 g/ha) | Plant response rating (0 to 100), Ryegrass (ryegrass; Rate 8 g/ha, PREEMERGENCE) | Plant response rating (0 to 100), Duck salad (duck salad; POSTEMERGENCE section, flood test, Rate 2 g/ha)
9: Plant response rating (0 to 10 scale), Wild oat (wild oat; PREEMERGENCE, Rate 200 g/ha) | Plant response rating, Wild oat (wild oat; Rate 200 g/ha, POSTEMERGENCE) | Plant response rating, Chickweed (chickweed [1]; POSTEMERGENCE, Rate 50 g/ha)
80: Plant response rating (0 to 100), Duck salad (duck salad; Rate 31 g/ha, under POSTEMERGENCE head (flood test species))
100: Plant response rating Lambsquarters (lambsquarters; POSTEMERGENCE) | Plant response rating Lambsquarters (lambsquarters; PREEMERGENCE) | Plant response rating (0 to 100), Lambsquarters (lambsquarters; Rate 8 g/ha, PREEMERGENCE) | Plant response rating (0 to 100), Lambsquarters (lambsquarters; Rate 31 g/ha, POSTEMERGENCE) | Plant response rating (0 to 100), Lambsquarters (lambsquarters; Rate 31 g/ha, PREEMERGENCE) | Plant response rating Ryegrass (ryegrass; PREEMERGENCE) | Plant response rating, Sugar beet (sugar beet; POSTEMERGENCE) | Plant response rating (0 to 100), Sugar beet (sugar beet; POSTEMERGENCE, Rate 2 g/ha) | Plant response rating, Sugar beet (sugar beet; PREEMERGENCE) | Plant response rating (0 to 100), Sugar beet (sugar beet; Rate 8 g/ha, POSTEMERGENCE) | Plant response rating (0 to 100), Sugar beet (sugar beet; Rate 31 g/ha, POSTEMERGENCE) | Plant response rating, Chickweed (chickweed [2]; POSTEMERGENCE) | Plant response rating (0 to 100), Chickweed (chickweed [2]; Rate 31 g/ha, POSTEMERGENCE)
